Legend:
Experiment in all cases: Bliss excess, mean over the matrix (fraction); higher = more synergy
[1] = tested on: 23132-87 (Gastric Carcinoma)
Summary of the method: (§1)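 Cell lines in DMEM/F12 or RPMI with 10% FBS were plated in 1536-well plates, held 24 hours at 37°C, 5% CO2, then given two-drug dose matrices for 72 hours (DMSO typically 0.2%). Viability was read by CellTiter-Glo 2.0 luminescence and scaled as inhibition from 0 (vehicle wells) to 1 (blank wells). Combination Emax is the second-highest inhibition in the matrix; Bliss excess is observed combination effect minus expected EA + EB − EA·EB, EA and EB being single-agent effects.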

[2] = tested on: A2058 (Melanoma)
Summary of the method: as §1

[3] = tested on: GB-1 (Glioblastoma)
Summary of the method: as §1

[4] = tested on: GP5d (Colorectal Carcinoma)
Summary of the method: as §1

[5] = tested on: HCT-15 (Colorectal Carcinoma)
Summary of the method: as §1

[6] = tested on: IST-MES1 (Mesothelioma)
Summary of the method: as §1

[7] = tested on: L-1236 (Hodgkin's Lymphoma)
Summary of the method: as §1

[8] = tested on: LK-2 (Squamous Cell Lung Carcinoma)
Summary of the method: as §1

[9] = tested on: LXF-289 (Lung Adenocarcinoma)
Summary of the method: as §1

[10] = tested on: MFE-280 (Endometrial Carcinoma)
Summary of the method: as §1

[11] = tested on: MKN45 (Gastric Carcinoma)
Summary of the method: as §1

[12] = tested on: NCI-H23 (Lung Adenocarcinoma)
Summary of the method: as §1

[13] = tested on: NCI-H446 (Small Cell Lung Carcinoma)
Summary of the method: as §1

[14] = tested on: OVMIU (Ovarian Carcinoma)
Summary of the method: as §1

[15] = tested on: PSN1 (Pancreatic Carcinoma)
Summary of the method: as §1

[16] = tested on: RKN (Other Solid Carcinomas)
Summary of the method: as §1

[17] = tested on: SF539 (Glioblastoma)
Summary of the method: as §1

[18] = tested on: SHP-77 (Small Cell Lung Carcinoma)
Summary of the method: as §1

[19] = tested on: VAL (B-Cell Non-Hodgkin's Lymphoma)
Summary of the method: as §1

[20] = tested on: WM278 (Melanoma)
Summary of the method: as §1

## CN(CCO)CC[C@H](CSc1ccccc1)Nc1ccc(S(=O)(=O)NC(=O)c2ccc(N3CCC([C@@H](O)c4ccccc4-c4ccc(Cl)cc4)CC3)cc2)cc1S(=O)(=O)C(F)(F)F [AZD4320] + CCN(CCO)CCCOc1ccc2c(Nc3cc(CC(=O)Nc4cccc(F)c4)[nH]n3)ncnc2c1 [AZD2811] (first compound max 1 µM, 7x7, partner max 1 µM)
[1]
  Bliss excess: -0.0339
[2]
  Bliss excess: 0.0723
[3]
  Bliss excess: -0.0189
[4]
  Bliss excess: 0.0026
[5]
  Bliss excess: -0.0189
[6]
  Bliss excess: -0.0265
[7]
  Bliss excess: -0.0263
[8]
  Bliss excess: 0.0358
[9]
  Bliss excess: -0.0532
[10]
  Bliss excess: 0.0821
[11]
  Bliss excess: -0.0438
[12]
  Bliss excess: 0.0244
[13]
  Bliss excess: -0.0505
[14]
  Bliss excess: -0.0627
[15]
  Bliss excess: -0.0029
[16]
  Bliss excess: -0.0481
[17]
  Bliss excess: 0.0862
[18]
  Bliss excess: -0.0019
[19]
  Bliss excess: -0.0063
[20]
  Bliss excess: 0.0469

## CN(CCO)CC[C@H](CSc1ccccc1)Nc1ccc(S(=O)(=O)NC(=O)c2ccc(N3CCC([C@@H](O)c4ccccc4-c4ccc(Cl)cc4)CC3)cc2)cc1S(=O)(=O)C(F)(F)F [AZD4320] + CN(C)CCCOc1ccc(-c2ccc3ncc4c(c3c2)n(C2CCOCC2)c(=O)n4C)cn1 [AZD0156] (first compound max 1 µM, 7x7, partner max 1 µM)
[1]
  Bliss excess: -0.0277
[2]
  Bliss excess: -0.0134
[3]
  Bliss excess: -0.0272
[4]
  Bliss excess: -0.0087
[5]
  Bliss excess: -0.0438
[6]
  Bliss excess: -0.041
[7]
  Bliss excess: -0.0001
[8]
  Bliss excess: 0.0312
[9]
  Bliss excess: -0.0636
[10]
  Bliss excess: 0.0113
[11]
  Bliss excess: -0.0612
[12]
  Bliss excess: -0.0118
[13]
  Bliss excess: -0.0002
[14]
  Bliss excess: -0.0427
[15]
  Bliss excess: -0.0308
[16]
  Bliss excess: -0.0417
[17]
  Bliss excess: -0.0163
[18]
  Bliss excess: 0.0223
[19]
  Bliss excess: 0.0174
[20]
  Bliss excess: -0.0148

## CN(CCO)CC[C@H](CSc1ccccc1)Nc1ccc(S(=O)(=O)NC(=O)c2ccc(N3CCC([C@@H](O)c4ccccc4-c4ccc(Cl)cc4)CC3)cc2)cc1S(=O)(=O)C(F)(F)F [AZD4320] + C[C@@H]1COCCN1C2=NC(=NC(=C2)C3(CC3)[S@](=N)(=O)C)C4=C5C=CNC5=NC=C4 [AZD6738] (first compound max 1 µM, 7x7, partner max 10 µM)
[1]
  Bliss excess: 0.0832
[2]
  Bliss excess: -0.0088
[3]
  Bliss excess: -0.0314
[4]
  Bliss excess: -0.0515
[5]
  Bliss excess: 0.0099
[6]
  Bliss excess: -0.0338
[7]
  Bliss excess: 0.0169
[8]
  Bliss excess: -0.0267
[9]
  Bliss excess: 0.0029
[10]
  Bliss excess: 0.0099
[11]
  Bliss excess: -0.0471
[12]
  Bliss excess: -0.0073
[13]
  Bliss excess: 0.0178
[14]
  Bliss excess: 0.0069
[15]
  Bliss excess: -0.0798
[16]
  Bliss excess: -0.03
[17]
  Bliss excess: -0.0706
[18]
  Bliss excess: -0.0032
[19]
  Bliss excess: 0.0095
[20]
  Bliss excess: -0.0404

## CN(CCO)CC[C@H](CSc1ccccc1)Nc1ccc(S(=O)(=O)NC(=O)c2ccc(N3CCC([C@@H](O)c4ccccc4-c4ccc(Cl)cc4)CC3)cc2)cc1S(=O)(=O)C(F)(F)F [AZD4320] + C[C@@H](Nc1cc(F)cc(F)c1)c1cc(C(=O)N(C)C)cc2c(=O)cc(N3CCOCC3)oc12 [AZD8186] (first compound max 1 µM, 7x7, partner max 3 µM)
[1]
  Bliss excess: -0.031
[2]
  Bliss excess: 0.0157
[3]
  Bliss excess: -0.0289
[4]
  Bliss excess: -0.0378
[5]
  Bliss excess: 0.0162
[6]
  Bliss excess: 0.0552
[7]
  Bliss excess: 0.0082
[8]
  Bliss excess: -0.0056
[9]
  Bliss excess: -0.0351
[10]
  Bliss excess: 0.0097
[11]
  Bliss excess: -0.0724
[12]
  Bliss excess: 0.08
[13]
  Bliss excess: 0.0281
[14]
  Bliss excess: -0.0637
[15]
  Bliss excess: -0.0651
[16]
  Bliss excess: -0.0338
[17]
  Bliss excess: 0.0425
[18]
  Bliss excess: 0.0216
[19]
  Bliss excess: 0.0137
[20]
  Bliss excess: 0.035

## CN(CCO)CC[C@H](CSc1ccccc1)Nc1ccc(S(=O)(=O)NC(=O)c2ccc(N3CCC([C@@H](O)c4ccccc4-c4ccc(Cl)cc4)CC3)cc2)cc1S(=O)(=O)C(F)(F)F [AZD4320] + Cc1cc2ncnn2cc1Nc1ncc2c(n1)n(C1CCOCC1)c(=O)n2C [AZD7648] (first compound max 1 µM, 7x7, partner max 10 µM)
[1]
  Bliss excess: -0.0311
[2]
  Bliss excess: -0.0231
[3]
  Bliss excess: -0.0225
[4]
  Bliss excess: -0.052
[5]
  Bliss excess: -0.0202
[6]
  Bliss excess: -0.042
[7]
  Bliss excess: -0.0299
[8]
  Bliss excess: -0.0075
[9]
  Bliss excess: -0.0326
[10]
  Bliss excess: -0.0471
[11]
  Bliss excess: -0.0744
[12]
  Bliss excess: -0.0298
[13]
  Bliss excess: 0.0292
[14]
  Bliss excess: -0.0652
[15]
  Bliss excess: -0.0361
[16]
  Bliss excess: -0.0467
[17]
  Bliss excess: 0.0095
[18]
  Bliss excess: -0.0012
[19]
  Bliss excess: 0.0316
[20]
  Bliss excess: -0.0277

## COc1nnc2ccc(N3CCC(c4ccc(OCCN5CCN(C)C(=O)[C@H]5C)cc4)CC3)nn12 [AZD5153] + C=CCn1c(=O)c2cnc(Nc3ccc(N4CCN(C)CC4)cc3)nc2n1-c1cccc(C(C)(C)O)n1 [AZD1775] (first compound max 1 µM, partner max 1 µM)
[1]
  Bliss excess: 0.0309
[2]
  Bliss excess: -0.0175
[3]
  Bliss excess: 0.056
[4]
  Bliss excess: -0.0279
[5]
  Bliss excess: -0.0738
[6]
  Bliss excess: -0.0347
[7]
  Bliss excess: -0.0138
[8]
  Bliss excess: 0.0029
[9]
  Bliss excess: -0.0212
[10]
  Bliss excess: -0.0779
[11]
  Bliss excess: -0.105
[12]
  Bliss excess: -0.027
[13]
  Bliss excess: -0.0553
[14]
  Bliss excess: -0.0409
[15]
  Bliss excess: -0.0385
[16]
  Bliss excess: -0.0898
[17]
  Bliss excess: -0.0303
[18]
  Bliss excess: 0.0194
[19]
  Bliss excess: -0.126
[20]
  Bliss excess: -0.0364
